Test results as given in patent publication US9399145B2, “Nanoscale neuromodulating platform for retina neuron activation apparatus and method” (The Board of Trustees of the University of Illinois, priority 2005, dated 2016).

Key:
[1] = molecular target: T1, α1β2γ2 GABAARs (rat α1, rat β2 and human γ2S) (UniProt P18507+P62813+P63138); assay: Two-electrode voltage clamp of α1β2γ2 GABAAR-expressing Xenopus oocytes; format: cell-based; settings: for rate constant 1/τ of UV-induced decrease in membrane current (de-potentiation): 3 μM GABA and 1 μM MPC088
T1 construct: expressed in transfected cells; host or cells: Xenopus laevis oocytes
Description: Purple and gray bars indicate periods of presentation of UV light (purple) and high-intensity visible light (High-Vis) (gray), respectively. […] These amplitude determination conditions are denoted by numbers beneath the waveform in FIG. 35d.
In each of the MPC088 experiments, the cis-dominant form was generated by UV light during static bathing. […] Numbers beneath the waveform in FIG. 2(c) denote amplitude determination conditions for that experiment.
Oocytes expressing α1β2γ2 receptors (rat α1, rat β2 and human γ2S) were prepared and studied by two-electrode voltage-clamp recording^58 (holding potential: −70 mV; amplifier: GeneClamp500B; Axon Instruments, Foster City, Calif.). Unless otherwise indicated, oocytes were superfused with Ringer solution (physiological saline) at a rate of ˜1 mL/min. The experiments of FIGS. 35d-e, 36c-e and 47 involved periods of static bathing, i.e., halted superfusion. The γ2(A79C) subunit was prepared by site-directed mutagenesis. Oocyte electrophysiological experiments were carried out in room light. A UV light-emitting diode (peak wavelength: 365 nm; Hamamatsu Photonics, Japan) and a microscope illuminator (white light; Schott Fostec, Auburn, N.Y.) provided UV and visible stimulating light. As measured at the position of the oocyte, the intensity of the UV light at 365 nm was 220 μW/mm^2. At 440 nm, the nominal strength of the visible (white) light (referred to as high-intensity visible light) was 28 μW/mm^2, and that of the ambient room illumination was 0.045 μW/mm^2. In all experiments, low-intensity visible light from the microscope illuminator (3 μW/mm^2 at 440 nm) was present at all times except those involving high-intensity visible illumination. Electrophysiological data were obtained using Clampex 8.2 (Axon Instruments), analyzed using Clampfit 10.0 (Axon Instruments) and OriginPro7.5 (OriginLab, Northampton, Mass.). All statistical analysis employed a two-sample t-test.

α4β3δ GABAAR = molecular target: T2, α4β3δ GABAAR (Homo sapiens, UniProt P28472+P48169); assay: Two-electrode voltage clamp of α4β3δ GABAAR-expressing oocytes; format: cell-based
T2 construct: expressed in transfected cells; host or cells: Xenopus oocytes
Description: Propofol is known to modulate GABAA receptors that contain a β subunit. […] Data in each group was obtained from 4 oocytes.

[2] = test system: GABAARs of cerebellar PNs; assay: Whole-cell voltage clamp of cerebellar Purkinje neurons in slices, GABA-evoked currents with UV/blue light; format: cell-based, mouse; settings: 10 μM GABA + 30 μM MPC088 by pressure pipette
Procedure: To evaluate the efficacy of MPC088 in GABAAR-expressing cells in situ, whole-cell voltage-clamp experiments were conducted on Purkinje neurons (PNs) in parasagittal slices from mouse cerebellum (Häusser et al. (1997); Smith et al. (2003)) (FIG. 40). […] The cell was flashed with UV light (1 s, shuttered from a mercury arc lamp), then blue light (1 s, from a 470 nm LED), and then again with UV light (1 s). […] The magnitude of the UV-to-blue transition was calculated as (B-UV1)/UV1; that of the blue-to-UV transition was calculated as (UV2-B)/UV2. […] For the negative control experiments (i.e., those involving exposure to vehicle or propofol alone) in which no light-evoked current was detectable, current was measured for identical epochs at the terminations of the light pulses.
Experiments on cerebellar PNs employed acute slices obtained from cerebella of 16-30 day-old C57/BL6 mice (Charles River Laboratories). After induction of deep anesthesia with isoflurane, mice were decapitated, and the cerebellum vermis was removed and placed in an ice-cold cutting solution containing (in mM): 85 NaCl, 2.5 KCl, 0.5 CaCl2, 4 MgCl2, 1.25 NaH2PO4, 24 NaHCO3, 25 glucose, and 75 sucrose. A Leica VT1000 vibratome was used to cut 250 μm thick, sagittal slices from the cerebellar vermis. […]

α1β3γ2 GABAAR = molecular target: T3, α1β3γ2 GABAAR (UniProt P28472+P62813); assay: Two-electrode voltage clamp of α1β3γ2 GABAAR-expressing oocytes; format: cell-based; settings: 1 μM trans-MPC088 with 1 μM GABA (~EC3)
T3 construct: expressed in transfected cells; host or cells: Xenopus oocytes
Description: Propofol is known to modulate GABAA receptors that contain a β subunit. […] Data in each group was obtained from 4 oocytes. […] Aggregate concentration-response data was also obtained from α1β3γ2 (squares) and α4β3δ (circles) receptors with trans-dominant MPC088 alone (FIG. 37b). Data was similarly normalized to the saturating GABA response obtained from each oocyte. Results for α1β2γ2 GABAARs in a and b (triangles) were reproduced from those of FIGS. 35c and 36b, respectively.
The activity of trans-dominant MPC088 was also tested at receptors containing the β-subunit substitution N265M, a mutation that markedly reduces the action of propofol both in vitro and in vivo (Jurd et al. (2003); Siegwart et al. (2002)). […] For each receptor type, illustrated responses are representative data obtained from a single oocyte.

Hydrophobicity (log P) = format: physicochemical
[3] = test system: AMPAR/NMDAR-mediated EPSCs; assay: AMPAR/NMDAR-mediated EPSCs in hippocampal CA1 pyramidal neurons; format: cell-based, mouse
Procedure: To test whether MPC088 affects excitatory synaptic transmission, whole-cell voltage-clamp recordings were carried out in CA1 pyramidal neurons of mouse hippocampus. As in the experiments of FIG. 42, these recordings were obtained with perfusion of the slice with cis-dominant MPC088 (30 μM) under recirculation. PTX […] was also included in the external solution to block GABAARs. EPSCs were evoked by stimulating the Schaffer collaterals with a bipolar matrix microelectrode (FHC, Inc., Bowdoin, Me.), and recorded at a holding potential of +40 mV to uncover the NMDA receptor (NMDAR) component of the EPSC. Paired electrical stimuli separated by 80 ms were also presented to assess possible effects of MPC088 on short-term plasticity. Each cell was […] 20 interleaved trials in which the cell was exposed to two 0.1-s UV pulses surrounding a 1-s period of either blue light or no light (FIG. 50). […] Each trace is the average of 10 traces with stimulus and shutter artifacts blanked for clarity. The black and grey asterisks indicate the time points, respectively, for the current measurements of the AMPAR- and NMDAR-mediated components. FIG. 50b depicts summary data including that shown in a. Plotted for the blue light and no blue light conditions are the average current amplitudes measured at the peak of the first EPSC (black bars), and just prior to the second stimulus (grey bars), as indicated by the asterisks in a.
To quantify the effects of MPC088 on AMPA receptors (AMPARs) and NMDARs, for the first EPSC of the pair, the peak current and the current just prior to the second stimulus were measured, which reflect AMPAR and NMDAR components, respectively, of the EPSC^41. […] Additionally, blue light had no significant effect on the decay of the compound current (average τ from single-exponential fitting to the decay of the second EPSC: Blue off, 131±11 ms; Blue on, 131±11 ms; p=0.89). There was also no significant effect of blue light on the paired-pulse ratio (PPR, measured as Peak(2nd EPSC)/Peak(1st EPSC): Blue off, 1.72±0.07; Blue on, 1.85±0.14; p=0.34).
Recordings from hippocampal CA1 pyramidal neurons were obtained from 17-23 day old animals. Briefly, the hippocampus was completely removed from the brain and then sliced in 300-μm sections. Prior to recording, a cut was made with a scalpel blade between CA1 and CA3 in order to completely sever all connections between the two; this was done in order to abolish polysynaptic activity due to antidromic activation of CA3 pyramidal cells. Recordings were carried out under voltage clamp with an internal solution containing (in mM): 130 CsCl, 10 HEPES, 1 CaCl2, 2 ATP, 0.2 GTP, 10 EGTA, and 5 QX-314 Br, and pH was adjusted to 7.3 with CsOH. All data from these experiments are presented as mean±SEM.

T1 sequence (P62813 28-455): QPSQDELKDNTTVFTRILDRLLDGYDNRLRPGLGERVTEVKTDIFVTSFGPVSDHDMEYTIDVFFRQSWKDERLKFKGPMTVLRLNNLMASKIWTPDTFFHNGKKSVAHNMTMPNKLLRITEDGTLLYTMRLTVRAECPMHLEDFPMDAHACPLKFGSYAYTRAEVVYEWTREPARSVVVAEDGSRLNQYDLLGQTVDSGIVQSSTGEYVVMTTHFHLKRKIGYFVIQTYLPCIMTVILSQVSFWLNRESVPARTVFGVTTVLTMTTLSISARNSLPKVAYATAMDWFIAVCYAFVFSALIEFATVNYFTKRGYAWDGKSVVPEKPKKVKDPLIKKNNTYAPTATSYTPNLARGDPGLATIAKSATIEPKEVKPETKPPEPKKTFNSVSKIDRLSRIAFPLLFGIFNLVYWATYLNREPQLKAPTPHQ
T1 sequence (P63138 25-474 limits assumed): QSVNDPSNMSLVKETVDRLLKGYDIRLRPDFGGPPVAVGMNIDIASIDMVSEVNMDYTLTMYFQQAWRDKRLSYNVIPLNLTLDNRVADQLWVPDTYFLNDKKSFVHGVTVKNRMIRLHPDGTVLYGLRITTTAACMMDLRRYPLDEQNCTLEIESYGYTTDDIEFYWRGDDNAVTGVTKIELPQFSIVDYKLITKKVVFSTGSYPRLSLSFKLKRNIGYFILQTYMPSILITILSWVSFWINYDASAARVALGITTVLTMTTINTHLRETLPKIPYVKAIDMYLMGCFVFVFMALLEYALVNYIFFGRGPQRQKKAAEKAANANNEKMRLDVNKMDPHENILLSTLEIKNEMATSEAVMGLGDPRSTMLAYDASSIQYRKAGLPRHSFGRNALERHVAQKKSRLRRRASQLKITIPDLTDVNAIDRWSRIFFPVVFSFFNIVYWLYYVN
T1 sequence (P18507 40-467 isoform P18507-1 limits assumed): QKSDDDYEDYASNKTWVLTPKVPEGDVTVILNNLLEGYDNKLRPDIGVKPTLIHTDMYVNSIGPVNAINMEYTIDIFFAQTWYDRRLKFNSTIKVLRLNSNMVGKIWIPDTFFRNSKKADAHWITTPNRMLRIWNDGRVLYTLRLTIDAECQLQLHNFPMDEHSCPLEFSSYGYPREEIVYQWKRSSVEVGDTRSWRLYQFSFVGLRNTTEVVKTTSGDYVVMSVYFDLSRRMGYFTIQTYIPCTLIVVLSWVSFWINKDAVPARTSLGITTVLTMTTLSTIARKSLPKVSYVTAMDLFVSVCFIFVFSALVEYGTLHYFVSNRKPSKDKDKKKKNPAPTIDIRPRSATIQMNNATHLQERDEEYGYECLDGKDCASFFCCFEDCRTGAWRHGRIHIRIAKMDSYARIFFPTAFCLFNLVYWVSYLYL
T2 sequence (P48169 36-554): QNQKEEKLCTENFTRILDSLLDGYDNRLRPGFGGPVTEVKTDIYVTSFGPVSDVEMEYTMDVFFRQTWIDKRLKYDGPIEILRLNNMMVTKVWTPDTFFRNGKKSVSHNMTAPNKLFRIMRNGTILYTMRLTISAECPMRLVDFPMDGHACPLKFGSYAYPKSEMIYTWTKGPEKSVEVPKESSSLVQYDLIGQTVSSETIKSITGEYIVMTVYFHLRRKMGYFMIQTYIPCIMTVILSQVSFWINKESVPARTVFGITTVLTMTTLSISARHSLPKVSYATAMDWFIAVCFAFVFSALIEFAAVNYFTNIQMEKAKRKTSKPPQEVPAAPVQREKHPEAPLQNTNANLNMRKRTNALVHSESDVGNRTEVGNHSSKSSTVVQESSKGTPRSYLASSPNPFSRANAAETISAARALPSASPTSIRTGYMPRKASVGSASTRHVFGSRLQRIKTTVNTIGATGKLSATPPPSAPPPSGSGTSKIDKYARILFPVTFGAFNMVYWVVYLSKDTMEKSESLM
T2 sequence (P28472 26-473): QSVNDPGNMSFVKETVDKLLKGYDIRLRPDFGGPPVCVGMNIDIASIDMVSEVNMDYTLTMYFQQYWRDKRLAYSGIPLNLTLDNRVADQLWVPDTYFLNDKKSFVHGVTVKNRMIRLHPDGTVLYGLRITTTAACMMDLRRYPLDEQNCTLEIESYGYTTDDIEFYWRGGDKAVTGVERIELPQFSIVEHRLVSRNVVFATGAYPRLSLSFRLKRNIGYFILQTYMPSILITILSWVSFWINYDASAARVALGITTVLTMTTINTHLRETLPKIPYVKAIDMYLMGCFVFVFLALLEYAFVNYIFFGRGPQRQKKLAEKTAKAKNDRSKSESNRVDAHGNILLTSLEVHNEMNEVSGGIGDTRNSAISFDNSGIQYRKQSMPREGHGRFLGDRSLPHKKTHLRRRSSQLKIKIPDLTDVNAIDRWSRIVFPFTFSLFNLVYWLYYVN
T2 sequence (O14764 25-452 partner): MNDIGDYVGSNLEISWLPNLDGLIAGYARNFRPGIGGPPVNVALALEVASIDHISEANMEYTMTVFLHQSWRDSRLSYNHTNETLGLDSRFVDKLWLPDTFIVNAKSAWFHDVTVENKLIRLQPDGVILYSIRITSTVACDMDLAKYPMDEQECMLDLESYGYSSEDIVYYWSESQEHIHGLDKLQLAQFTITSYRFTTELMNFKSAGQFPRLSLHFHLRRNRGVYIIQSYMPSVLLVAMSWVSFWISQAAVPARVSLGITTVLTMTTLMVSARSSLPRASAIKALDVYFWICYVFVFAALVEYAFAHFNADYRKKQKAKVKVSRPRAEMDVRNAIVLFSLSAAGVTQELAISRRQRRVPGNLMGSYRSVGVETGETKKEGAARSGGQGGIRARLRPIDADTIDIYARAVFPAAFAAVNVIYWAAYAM
T3 sequence (P62813 28-455): as the sequence (P62813 28-455) above
T3 sequence (P28472 26-473): as the sequence (P28472 26-473) above
T3 sequence (P18507 40-467 isoform P18507-1 partner limits assumed): as the sequence (P18507 40-467 isoform P18507-1 limits assumed) above

Structure (SMILES): CC(C)c1cc(CCCC(=O)NCc2ccc(/N=N/c3ccc(C(=O)NCCN)cc3)cc2)cc(C(C)C)c1O [MPC088, (E)-N-(2-Aminoethyl)-4-((4-((4-(4-hydroxy-3,5-diisopropylphenyl)butanamido)methyl)phenyl)diazenyl)benzamide]
- GABAAR potentiating and direct agonist activities relative to parent propofol [1]: more than an order of magnitude
- rate constant 1/τ of UV-induced decrease in membrane current (de-potentiation) ([1]; 10-fold reduced UV intensity): 0.13 ± 0.02 s⁻¹
- rate constant 1/τ of UV-induced decrease in membrane current (de-potentiation) ([1]; nominal UV intensity): 0.43 ± 0.09 s⁻¹
- potentiation of the GABA response ([1]; co-applied 3 μM GABA, MPC088 1 μM, MPD021 10 or 100 μM, MPC100 10 μM): markedly potentiated the GABA response
- maximum current of direct activation relative to the 100 μM GABA response ([1]; compound alone): comparable with the peak current elicited by 100 μM GABA
- lowest concentration at which direct activation response is clearly evident ([1]; compound alone, no GABA): 4 µM
- potency in direct activation relative to propofol ([1]; concentrations required for peak current equal to 40% of the 100 μM GABA-alone response): ~25 fold
- plateau of response function relative to response with high GABA concentration (α4β3δ GABAAR; co-applied 50 nM GABA (~EC8)): ~42%
- direct agonist activity (α4β3δ GABAAR; compound alone): much lower than those at α1β3γ2 and α1β2γ2
- mean ratio of absolute current magnitude in response to blue→UV/UV→blue [2]: 1.00±0.01
- response enhancement (α1β3γ2 GABAAR): 4.4±1.3 fold
- logP (Hydrophobicity (log P)): > 6
- actions on AMPAR-mediated and NMDAR-mediated EPSCs ([3]; 30 μM): negligible actions on AMPAR-mediated and NMDAR-mediated EPSCs
- average τ of decay of the second EPSC ([3]; 30 μM MPC088, Blue off): 131 ± 11 ms
- paired-pulse ratio (PPR) ([3]; 30 μM MPC088, Blue off): 1.72±0.07
- average τ of decay of the second EPSC ([3]; 30 μM MPC088, Blue on): 131 ± 11 ms
- paired-pulse ratio (PPR) ([3]; 30 μM MPC088, Blue on): 1.85±0.14
